Biological target: human TPH1 (Homo sapiens (Human), UniProt P17752)
Assay: Biochemical in vitro assay using fluorescence readout (TPH1 inhibition)
Conditions: full length human TPH1, 40 μM L-tryptophan, 15° C., 60 minutes, fluorescence at 540 nm; mean if determined several times
Excerpt: Biochemical In Vitro Assay Using Fluorescence Readout
To generate the enzyme, full length human TPH1 is cloned into the plasmid pET20b(+) (Novagen) and expressed in E. coli. The bacterial cells are ruptured by sonication on ice and the lysate is cleared by centrifugation. The resulting protein in the pellet is re-extracted and TPH1 is purified from the obtained lysate by affinity chromatography using a pterin cosubstrate analog immobilized to the resin of the column. The protein is further purified by size exclusion chromatography to remove protein aggregates. The activity of TPH1 is determined by using a fluorescence assay. The enzyme activity assay is carried out at 15° C. with atmosphere oxygen for the duration of 60 minutes in a volume of 64 μl. The reaction is carried out in a 0.1 M Tris-HCl buffer, adjusted to pH 7.6, containing 1 mM DTT, 0.2 mg/mL catalase, 100 μM (±)-6-methyl-5,6,7,8-tetrahydropterine dihydrochloride, 40 μM L-tryptophan, and 40-80 nM of TPH1. The reaction is started by bringing together L-tryptophan with all the other reaction substituents and stopped by quenching with perchloric acid (HClO4). The amount of 5-hydroxy-L-tryptophan produced during the enzymatic reaction is determined by fluorescence readout. Fluorescence, as determined at 540 nm when excited at 300 nm wavelength, increases proportionally to the 5-hydroxy-L-tryptophan formed. Compounds are prepared as 10 mM stock solution in DMSO, then diluted in 384-well plates using DMSO followed by a transfer of the dilutions into the assay plate. Fluorescence is measured for each well and the fluorescence at 540 nm wavelength is compared to the fluorescence of the vehicle in place of compound. Inhibitory activities of example compounds with respect to the TPH1 protein are determined by calculating the IC50 value (the concentration of compound needed to inhibit 50% of the enzyme activity). The calculated IC50 values may fluctuate depending on the daily biochemical assay performance. Fluctuations of this kind are known to those skilled in the art.

Sequence of human TPH1 (P17752 whole entry): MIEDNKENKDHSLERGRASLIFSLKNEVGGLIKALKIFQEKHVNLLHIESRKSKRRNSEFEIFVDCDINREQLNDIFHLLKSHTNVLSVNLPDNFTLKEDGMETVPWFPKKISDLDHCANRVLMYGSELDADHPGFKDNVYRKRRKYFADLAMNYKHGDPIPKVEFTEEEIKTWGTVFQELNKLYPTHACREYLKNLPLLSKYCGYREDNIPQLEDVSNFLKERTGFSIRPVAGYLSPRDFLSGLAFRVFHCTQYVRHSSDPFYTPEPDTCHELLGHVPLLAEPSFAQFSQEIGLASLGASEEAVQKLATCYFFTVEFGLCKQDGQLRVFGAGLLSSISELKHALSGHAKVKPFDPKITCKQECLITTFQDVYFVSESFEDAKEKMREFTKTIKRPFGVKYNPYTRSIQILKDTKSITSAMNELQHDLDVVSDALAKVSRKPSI

Compared with `Cc1nn2c3c(nc2s1)CCN(C(=O)COc1ccc(N2CCOCC2)nc1Cl)C3c1csc(CN(C)C)c1` (stereo not shown) [Example 1.69.1, 2-((2-Chloro-6-morpholinopyridin-3-yl)oxy)-1-(5-(5-((dimethylamino)-methyl)thiophen-3-yl)-2-methyl-7,8-dihydro-[1,3,4]thiadiazolo[2′,3′:2,3]imidazo[4,5-c]pyridin-6(5H)-yl)ethanone], `Cc1nn2c3c(nc2s1)CCN(C(=O)COc1ccc(N)nc1Cl)C3c1ccc(Cl)cc1F` (stereo not shown) [Example 1.4.22, 2-((6-amino-2-chloropyridin-3-yl)oxy)-1-(5-(4-chloro-2-fluorophenyl)-2-methyl-7,8-dihydro-[1,3,4]thiadiazolo[2′,3′:2,3]imidazo[4,5-c]pyridin-6(5H)-yl)-ethanone] is 5.1-fold lower in IC50: 51 nM for the first, 10 nM for the second.

For `Cc1nn2c3c(nc2s1)CCN(C(=O)COc1cc(F)cnc1Cl)C3c1cnc(N(C)C)s1` (stereo not shown) [Example 1.22.4, 2-((2-Chloro-5-fluoropyridin-3-yl)oxy)-1-(5-(2-(dimethylamino)thiazol-5-yl)-2-methyl-7,8-dihydro-[1,3,4]thiadiazolo[2′,3′:2,3]imidazo[4,5-c]pyridin-6(5H)-yl)ethanone], the IC50 was 79 nM.

Same assay, conditions: human TPH1, fluorescence readout

`CNC(=O)c1ccc(OCC(=O)N2CCc3nc4sccn4c3C2c2sccc2F)c(Cl)n1` (stereo not shown) [Example 6.8.3, 6-chloro-5-(2-(5-(3-fluorothiophen-2-yl)-7,8-dihydro-thiazolo[2′,3′:2,3]imidazo[4,5-c]pyridin-6(5H)-yl)-2-oxoethoxy)-N-methylpicolinamide] and `CS(=O)(=O)Nc1ccc(OCC(=O)N2CCc3nc4sccn4c3C2c2sccc2F)c(Cl)c1` (stereo not shown) [Example 6.8.5, N-(3-chloro-4-(2-(5-(3-fluorothiophen-2-yl)-7,8-dihydro-thiazolo[2′,3′:2,3]imidazo[4,5-c]pyridin-6(5H)-yl)-2-oxoethoxy)phenyl)methanesulfonamide] are the same in IC50: 9 nM for the first, 9 nM for the second.

Going from `CCc1nc(C)ccc1OCC(=O)N1CCc2nc3sc(C)nn3c2C1c1ncc(C2CC2)cc1F` (stereo not shown) [Example 1.14.2, 1-(5-(5-cyclopropyl-3-fluoropyridin-2-yl)-2-methyl-7,8-dihydro-[1,3,4]thiadiazolo[2′,3′:2,3]imidazo[4,5-c]pyridin-6(5H)-yl)-2-((2-ethyl-6-methylpyridin-3-yl)oxy)ethanone] to `CCc1nc(NS(C)(=O)=O)ccc1OCC(=O)N1CCc2nc3sc(CF)nn3c2C1c1ncc(C)cc1F` (stereo not shown) [Example 7.2.2, N-(6-ethyl-5-(2-(5-(3-fluoro-5-methylpyridin-2-yl)-2-(fluoromethyl)-7,8-dihydro-[1,3,4]thiadiazolo[2′,3′:2,3]imidazo[4,5-c]pyridin-6(5H)-yl)-2-oxoethoxy)pyridin-2-yl)methanesulfonamide], the IC50 rises from 6 nM to 20 nM (3.3-fold).

`COC(=O)c1csc(C2c3c(nc4sc(C)nn34)CCN2C(=O)COc2ccc(N3CCOCC3)nc2Cl)c1` (stereo not shown) [Example 1.21.1, Methyl 5-(6-(2-((2-chloro-6-morpholinopyridin-3-yl)oxy)acetyl)-2-methyl-5,6,7,8-tetrahydro-[1,3,4]thiadiazolo[2′,3′:2,3]imidazo[4,5-c]pyridin-5-yl)thiophene-3-carboxylate] and `COC(=O)c1cnc(C2c3c(nc4sc(C)nn34)CCN2C(=O)COc2ccc(N3CCOCC3)nc2Cl)s1` (stereo not shown) [Example 1.28.1, Methyl 2-(6-(2-((2-chloro-6-morpholinopyridin-3-yl)oxy)acetyl)-2-methyl-5,6,7,8-tetrahydro-[1,3,4]thiadiazolo [2′,3′:2,3]imidazo[4,5-c]pyridin-5-yl)thiazole-5-carboxylate] are within 1.5-fold of each other in IC50: 5 nM for the first, 7 nM for the second.

`Cc1nn2c3c(nc2s1)CCN(C(=O)COc1ccc(S(=O)(=O)N(C)C)nc1Cl)C3c1ccc(Cl)cc1F` (stereo not shown) [Example 1.4.61, 6-chloro-5-(2-(5-(4-chloro-2-fluorophenyl)-2-methyl-7,8-dihydro-[1,3,4]thiadiazolo[2′,3′:2,3]imidazo[4,5-c]pyridin-6(5H)-yl)-2-oxoethoxy)-N,N-dimethylpyridine-2-sulfonamide] and `Cc1nn2c3c(nc2s1)CCN(C(=O)COc1ccc(S(C)(=O)=O)nc1Cl)C3c1ccc(Cl)cc1F` (stereo not shown) [Example 1.4.59, 1-(5-(4-chloro-2-fluorophenyl)-2-methyl-7,8-dihydro-[1,3,4]thiadiazolo[2′,3′:2,3]imidazo[4,5-c]pyridin-6(5H)-yl)-2-((2-chloro-6-(methylsulfonyl)pyridin-3-yl)oxy)ethan-1-one] are within 1.5-fold of each other in IC50: 37 nM for the first, 27 nM for the second.

Going from `COC(=O)c1cnc(C2c3c(nc4sc(C)nn34)CCN2C(=O)COc2ccc(N3CC(F)(F)C3)nc2Cl)s1` (stereo not shown) [Example 1.28.4, Methyl 2-(6-(2-((2-chloro-6-(3,3-difluoroazetidin-1-yl)pyridin-3-yl)oxy)acetyl)-2-methyl-5,6,7,8-tetrahydro-[1,3,4]thiadiazolo[2′,3′:2,3]imidazo[4,5-c]pyridin-5-yl)thiazole-5-carboxylate] to `Cc1nn2c3c(nc2s1)CCN(C(=O)COc1ccc(N2CCOCC2)nc1Cl)C3c1nc(CN(C)C)cs1` (stereo not shown) [Example 1.17.1, 2-((2-chloro-6-morpholinopyridin-3-yl)oxy)-1-(5-(4-((dimethylamino)methyl)thiazol-2-yl)-2-methyl-7,8-dihydro-[1,3,4]thiadiazolo[2′,3′:2,3]imidazo[4,5-c]pyridin-6(5H)-yl)ethanone], the IC50 rises from 17 nM to 62 nM (3.6-fold).

First: Cc1nn2c3c(nc2s1)CCN(C(=O)COc1cccnc1Cl)C3c1sc(C(=O)N(C)C)cc1F (stereo not shown) [Example 1.24.5, 5-(6-(2-((2-chloropyridin-3-yl)oxy)acetyl)-2-methyl-5,6,7,8-tetrahydro-[1,3,4]thiadiazolo[2′,3′:2,3]imidazo[4,5-c]pyridin-5-yl)-4-fluoro-N,N-dimethylthiophene-2-carboxamide]
Second: Cc1nn2c3c(nc2s1)CCN(C(=O)COc1ccc(C(=O)N(C)C)nc1Cl)C3c1ccc(C)c(F)c1F (stereo not shown) [Example 1.61.1, 6-chloro-5-(2-(5-(2,3-difluoro-4-methylphenyl)-2-methyl-7,8-dihydro-[1,3,4]thiadiazolo[2′,3′:2,3]imidazo[4,5-c]pyridin-6(5H)-yl)-2-oxoethoxy)-N,N-dimethylpicolinamide]
The IC50 of the first is 9.1-fold higher: 64 nM for the first, 7 nM for the second.

First: Cc1nn2c3c(nc2s1)CCN(C(=O)COc1ccc(C(=O)N(C)C2CC2)nc1Cl)C3c1ccc(C2CC2)cc1F (stereo not shown) [Example 1.6.28, 6-chloro-N-cyclopropyl-5-(2-(5-(4-cyclopropyl-2-fluoro-phenyl)-2-methyl-7,8-dihydro-[1,3,4]thiadiazolo-[2′,3′:2,3]imidazo[4,5-c]pyridin-6(5H)-yl)-2-oxoethoxy)-N-methylpicolinamide]
Second: COc1ccc(C2c3c(nc4sc(C)nn34)CCN2C(=O)COc2ccc(CN3CCOCC3)nc2Cl)c(F)c1 (stereo not shown) [Example 1.3.2, 2-((2-chloro-6-(morpholinomethyl)pyridin-3-yl)oxy)-1-(5-(2-fluoro-4-methoxyphenyl)-2-methyl-7,8-dihydro-[1,3,4]thiadiazolo[2′,3′:2,3]imidazo[4,5-c]pyridin-6(5H)-yl)ethanone]
The IC50 of the first is 2-fold higher: 18 nM for the first, 9 nM for the second. The second is the more potent here.

Compared with `Cc1nn2c3c(nc2s1)CCN(C(=O)COc1ccc(N2CCOCC2)nc1Cl)C3c1ncc(Cl)cc1F` (stereo not shown) [Example 1.33.1, 1-(5-(5-chloro-3-fluoropyridin-2-yl)-2-methyl-7,8-dihydro[1,3,4]thiadiazolo[2′,3′:2,3]imidazo[4,5-c]pyridin-6(5H)-yl)-2-((2-chloro-6-morpholinopyridin-3-yl)oxy)ethanone], `Cc1nn2c3c(nc2s1)CCN(C(=O)COc1ccc(N2CCOCC2)nc1Cl)C3c1c(C)noc1C` (stereo not shown) [Example 1.5.2, 2-((2-chloro-6-morpholinopyridin-3-yl)oxy)-1-(5-(3,5-dimethylisoxazol-4-yl)-2-methyl-7,8-dihydro-[1,3,4]thiadiazolo[2′,3′:2,3]imidazo[4,5-c]pyridin-6(5H)-yl)ethanone] is 4.5-fold higher in IC50: 2 nM for the first, 9 nM for the second. The first is the more potent here.

Going from `CCc1nc(C)ccc1OCC(=O)N1CCc2nc3sccn3c2C1c1ccc(C(F)(F)F)nc1C` (stereo not shown) [Example 6.17.1, 2-((2-ethyl-6-methylpyridin-3-yl)oxy)-1-(5-(2-methyl-6-(trifluoromethyl)pyridin-3-yl)-7,8-dihydrothiazolo-[2′,3′:2,3]imidazo[4,5-c]pyridin-6(5H)-yl)ethanone] to `COc1ccc(C2c3c(nc4sccn34)CCN2C(=O)COc2ccc(CN3CCOCC3)cc2Cl)c(F)c1` (stereo not shown) [Example 6.3.1, 2-(2-chloro-4-(morpholinomethyl)phenoxy)-1-(5-(2-fluoro-4-methoxyphenyl)-7,8-dihydrothiazolo[2′,3′:2,3]-imidazo[4,5-c]pyridin-6(5H)-yl)ethanone], the IC50 falls from 194 nM to 5 nM (39-fold). The second is the more potent here.

With `O=C(COc1ccc(CN2CCOCC2)nc1Cl)N1CCc2nc3sccn3c2C1c1nc2ccccc2s1` (stereo not shown) [Example 6.12.8, 1-(5-(benzo[d]thiazol-2-yl)-7,8-dihydrothiazolo-[2′,3′:2,3]imidazo[4,5-c]pyridin-6(5H)-yl)-2-((2-chloro-6-(morpholinomethyl)pyridin-3-yl)oxy)ethanone] the IC50 was 43 nM.
